From patent US11674963B2, “GPCRs in cancer-associated fibroblasts” (The Regents of the University of California, priority 2017, dated 2023)
Where a SMILES comes first, the peptide text is derived from it. The star is where a group is joined. Cbz = O=C(OCc1ccccc1)*

Experiments:
Type in all cases: cell-based, human
CAFs = experiment: Real-time qPCR of GPR68 and IL-6 expression in CAFs at pH 6.8 with PKA or CREB inhibitors; conditions: CAFs cultured 6 h in pH 6.8 media, normalized to pH 7.4
Method: FIG. 6A show CAFs transfected with control or GPR68 siRNA were cultured in pH media for 30 min, treated with 1 mM IBMX for 10 min and cellular cAMP was measured by the HitHunter cAMP assay. Data are mean±SEM, n=3, two-way ANOVA, *p<0.05, ****p<0.0001. […] Results were normalized to those at pH 7.4. n=3, data are mean±SEM, unpaired t test, **p<0.01, ***p<0.001, ns=non-significant. […] Activation of CREB is shown as p-CREB/CREB. Data are mean±SEM, n=3, unpaired t test, *p<0.05. […] Results are normalized to those at pH 7.4. Data are mean±SEM, n=3, unpaired t test, **p<0.01, ***p<0.001, ns=non-significant.
(§1) RNA isolated using an RNeasy kit with DNase treatment (Qiagen) and converted to cDNA using an iScript cDNA Synthesis Kit (Bio-Rad, Irvine, Calif., USA). cDNA was mixed with gene-specific primers and SYBR green reagent (Quanta Biosciences, Gaithersburg, Md., USA) for PCR amplification using a DNA Engine Opticon 2 system (MJ Research, Waltham, Mass., USA). Primers were designed using Primer Premier 6 software (PREMIER Biosoft, Palo Alto, Calif., USA). Gene expression was quantified as ΔCt using 18S rRNA as the reference gene. Expression of different cells was compared as fold-change=2(AACt). RNA isolated using an RNeasy kit with DNase treatment (Qiagen) and converted to cDNA using an iScript cDNA Synthesis Kit (Bio-Rad, Irvine, Calif., USA). cDNA was mixed with gene-specific primers and SYBR green reagent (Quanta Biosciences, Gaithersburg, Md., USA) for PCR amplification using a DNA Engine Opticon 2 system (MJ Research, Waltham, Mass., USA). Primers were designed using Primer Premier 6 software (PREMIER Biosoft, Palo Alto, Calif., USA). Gene expression was quantified as ΔCt using 18S rRNA as the reference gene. Expression of different cells was compared as fold-change=2(AACt). […] Gene expression was quantified as ΔCt using 18S rRNA as the reference gene. […]
The pH media are DMEM containing 5 g/L glucose, 20 mM HEPES, 20 mM NaHCO3, 2% FBS, 100 I.U./ml penicillin and 100 μg/ml streptomycin, pH adjusted by HCl or NaOH at room temperature. […] Cell viability were assessed by a CEllTiter-Glo Luminescent assay (Promega) and detected using a DXT 800 multimode plate reader (Beckman Coulter, Carlsbad, Calif., USA).

PSCs [1] = experiment: Real-time qPCR of GPR68 expression in PSCs incubated with TNFα and NF-κB inhibitors; conditions: 6 h, TNFα 50 ng/mL; MG-132 20 μM, IKK2 inhibitor VI 5 μM, JSH-23 20 μM, CAY10512 0.3 μM
Excerpt: (§2) FIGS. 3A-3D show co-culture of PDAC cells and PSCs increases expression by PSCs of GPR68 and fibrotic genes, effects mediated by TNFα and TGFβ, respectively. […] Relative expression was compared by 2^(ΔCt control-ΔCtco-culture). Data are mean±SEM, n=3, unpaired t test, *p<0.05, **p<0.01, ***p<0.001, ****p<0.0001. […] Relative expression was compared by 2^(ΔCt control-ΔCtTGFβ1 or ΔCtTNFα). Data are mean±SEM, n=3, unpaired t test, *p<0.05, **p<0.01, ****p<0.0001. […] Relative expression was compared to control by 2(ΔCt control-ΔCtco-culture). Data are mean±SEM, n=3, unpaired t test, *p<0.05. […] Relative expression was normalized to control by 2(ΔCt^control-ΔCtTGFβ1 or ^ΔCtTNFα) n=3, data are mean±SEM, unpaired t test, *p<0.05, **p<0.01, ****p<0.0001.
as §1

PSCs [2] = experiment: Real-time qPCR of gene expression in PSCs incubated with TGFβ1 or TNFα; conditions: PSCs incubated 48 h with 50 ng/mL
Excerpt: as §2
RNA isolated using an RNeasy kit with DNase treatment (Qiagen) and converted to cDNA using an iScript cDNA Synthesis Kit (Bio-Rad, Irvine, Calif., USA). cDNA was mixed with gene-specific primers and SYBR green reagent (Quanta Biosciences, Gaithersburg, Md., USA) for PCR amplification using a DNA Engine Opticon 2 system (MJ Research, Waltham, Mass., USA). Primers were designed using Primer Premier 6 software (PREMIER Biosoft, Palo Alto, Calif., USA). Gene expression was quantified as ΔCt using 18S rRNA as the reference gene. Expression of different cells was compared as fold-change=2(AACt). RNA isolated using an RNeasy kit with DNase treatment (Qiagen) and converted to cDNA using an iScript cDNA Synthesis Kit (Bio-Rad, Irvine, Calif., USA). cDNA was mixed with gene-specific primers and SYBR green reagent (Quanta Biosciences, Gaithersburg, Md., USA) for PCR amplification using a DNA Engine Opticon 2 system (MJ Research, Waltham, Mass., USA). Primers were designed using Primer Premier 6 software (PREMIER Biosoft, Palo Alto, Calif., USA). Gene expression was quantified as ΔCt using 18S rRNA as the reference gene. Expression of different cells was compared as fold-change=2(AACt). The primer sequences are: 18S-F: 5′-[…]-3′ (SEQ ID NO: 1); 18S-R: 5′-[…]-3′ (SEQ ID NO: 2); GPR68-F: 5′-CCTTCCGCTTCCACCAGTT-3′ (SEQ ID NO: 3); GPR68-R: 5′-TCGTCCTCGATGACCTCCT-3′ (SEQ ID NO: 4); ACTA2-F: 5′-[…]-3′ (SEQ ID NO: 5); ACTA2-R: 5′-[…]-3′ (SEQ ID NO: 6); COL1A1-F: 5′-[…]-3′ (SEQ ID NO: 7); COL1A1-R: 5′-[…]-3′ (SEQ ID NO: 8); IL6-F: 5′-[…]-3′ (SEQ ID NO: 9); IL6-R: 5′-[…]-3′ (SEQ ID NO: 10); COL3A1-F: 5′-GCTGGCTACTTCTCGCTCT-3′ (SEQ ID NO: 11); COL3A1-R: 5′-[…]-3′ (SEQ ID NO: 12); POSTN-F: 5′-[…]-3′ (SEQ ID NO: 13); POSTN-R: 5′-[…]-3′ (SEQ ID NO: 14); CTGF-F: 5′-[…]-3′ (SEQ ID NO: 15); CTGF-R: 5′-GCTACAGGCAGGTCAGTGA-3′ (SEQ ID NO: 16); PDGFRB-F: 5′-[…]-3′ (SEQ ID NO: 17); PDGFRB-R: 5′-[…]-3′ (SEQ ID NO: 18). Gene expression was quantified as ΔCt using 18S rRNA as the reference gene. We compared expression of different cells as fold-change=2(AACt).

O=S(=O)(NCCNC/C=C/c1ccc(Br)cc1)c1cccc2cnccc12 [H89]
GPR68 expression in CAFs (CAFs): did not alter | pH 6.8-promoted increase in IL-6 expression by CAFs (CAFs): blocked

NC(=O)Nc1sc(-c2ccccc2)cc1C(N)=O [IKK2 inhibitor VI]
TNFα-promoted increase in GPR68 expression in PSCs (PSCs [1]): reduced

Cc1ccc(NCCCc2ccccc2)c(N)c1 [JSH-23]
TNFα-promoted increase in GPR68 expression in PSCs (PSCs [1]): reduced

CC(C)C[C@@H](C=O)NC(=O)[C@H](CC(C)C)NC(=O)[C@H](CC(C)C)NC(=O)OCc1ccccc1 [MG132] (Cbz-Leu-Leu-Leu-aldehyde)
TNFα-promoted increase in GPR68 expression in PSCs (PSCs [1]): reduced

O=C(Nc1ccc(Cl)cc1)c1cc2ccccc2cc1O [naphthol AS-E]
GPR68 expression in CAFs (CAFs): without altering | pH 6.8-promoted increase in IL-6 expression by CAFs (CAFs): blunted

TGFβ1: Transforming growth factor beta 1, a driver of PSC activation
ACTA2 expression (PSCs [2]): increased expression | COL1A1 expression (PSCs [2]): increased expression | GPR68 expression (PSCs [2]; result in words): did not change

TNFα
ACTA2 expression (PSCs [2]): not higher | COL1A1 expression (PSCs [2]): not higher | expression of GPR68 (PSCs [2]; higher vs control): 18 fold | expression of IL-6 (PSCs [2]; higher vs control): 31 fold
